Laboratory results: patent US20250049740A1, “COMPOUND AND USE THEREOF IN PREPARATION OF MEDICAMENT FOR TREATING ALZHEIMER'S DISEASE” (priority 2024, published 2025)

Experiments:
Assay type in all cases: in vivo, mouse
[1] = tested on: wild-type mice C57BL/6J; test: Y maze test, wild-type mice given OLDA / OLDA plus formula I
Experimental: (§1) 6-week-old female wild-type mice C57BL/6J were divided into a control group injected with normal saline (Ctrl), a diseased group (injected with OLDA), and a treatment group (Formula I-OLDA). The administration was carried out by intraperitoneal injection, and the diseased group (OLDA, 0.5 mg/kg to 1.5 mg/kg), the control group (injected with normal saline, the volume of which was equal to that in the diseased group), and the treatment group (0.5 mg/kg to 1.5 mg/kg of OLDA, and 0.5 mg/kg to 1.5 mg/kg of formula I, prepared into a mixed solution for administration) were all administered once a day by injection for 8 consecutive weeks. After administration, the learning and memory ability of the mice in each group was evaluated by Y maze and Morris water maze tests.

[2] = tested on: colon tissue; test: HE staining of colon tissue (colonic epithelium histopathology), wild-type mice
Experimental: as §1, with “tests. According to the standard operating procedure of mouse brain anatomy, the mice in the control group, diseased group and treatment group in Example 3 were sacrificed, and their brain tissues and colon tissues were collected respectively and cryopreserved at −80° C. The colon tissues in the diseased group and control group in Example 4 were examined by HE staining technology for colonic epithelium histopathology. The colon tissues of the mice in the treatment group in Example 4 were examined by HE staining technology for colonic epithelium histopathology and compared with the diseased group.” for “tests.”

[3] = tested on: IBA-1 and GFAP positive cells; test: IHC of brain neuroinflammation markers, wild-type mice
Experimental: as §1
(§2) According to the standard operating procedure of mouse brain anatomy, the mice in the control group, diseased group and treatment group in Example 3 were sacrificed, and their brain tissues and colon tissues were collected respectively and cryopreserved at −80° C.
(§3) The brain tissues of the mice in the diseased group and control group in Example 4 were examined by IHC technology for AD-related biochemical markers, and examined by IHC technology for the related markers of brain neuroinflammation.
The brain tissues of the mice in the treatment group in Example 4 were examined by IHC technology for the related markers of brain neuroinflammation and compared with the diseased group.

[4] = tested on: wild-type mice C57BL/6J; test: Morris water maze test, wild-type mice given OLDA / OLDA plus formula I; conditions: for number of times of crossing the original platform location: platform removed
Experimental: as §1

[5] = tested on: Aβ and p-Tau181; test: IHC of AD-related biochemical markers in brain tissue (hippocampus), wild-type mice
Experimental: as §1, §2, §3
The brain tissues of the mice in the treatment group in Example 4 were examined by IHC technology for AD-related biochemical markers and compared with the diseased group.

[6] = tested on: 3×Tg mice (AD mice); test: Y maze test, 3×Tg mice (AD mice) injected with formula I; conditions: 3×Tg mice injected with a composition containing formula I vs control group injected with normal saline
Excerpt: (§4) 3×Tg mice (AD mice) in Example 2 were directly injected with a composition containing formula I (treatment group).

[7] = tested on: IBA-1 and GFAP positive cells; test: Brain neuroinflammation markers, 3×Tg mice injected with formula I; conditions: 3×Tg mice injected with a composition containing formula I vs control group injected with normal saline
Excerpt: as §4

[8] = tested on: Aβ and p-Tau181; test: AD markers in hippocampus, 3×Tg mice injected with formula I; conditions: 3×Tg mice injected with a composition containing formula I vs control group injected with normal saline
Excerpt: as §4

[9] = tested on: colon tissue; test: Colon tissue histopathology, 3×Tg mice injected with formula I; conditions: 3×Tg mice injected with a composition containing formula I vs control group injected with normal saline
Excerpt: as §4

[10] = tested on: 3×Tg mice (AD mice); test: Morris water maze test, 3×Tg mice (AD mice) injected with formula I; conditions: 3×Tg mice injected with a composition containing formula I vs control group injected with normal saline
Excerpt: as §4

[11] = OLDA 0.5 mg/kg to 1.5 mg/kg intraperitoneal once a day for 8 weeks, diseased group vs control group (normal saline)
[12] = OLDA diseased group vs control group
[13] = treatment group (OLDA and formula I, each 0.5 mg/kg to 1.5 mg/kg, mixed solution, intraperitoneal once a day, 8 weeks) vs diseased group (OLDA)
[14] = treatment group (OLDA and formula I) vs diseased group (OLDA)

CCCCCCCC/C=C\CCCCCCCC(=O)NCCc1ccc(O)c(O)c1 [OLDA, N-oleoyl-dopamine, reference compound]
spontaneous alternation rate [1, 11]: significantly reduced | total number of arm entries [1, 11]: significantly reduced | inflammatory cells in the colon tissue [2, 12]: infiltrated into muscularis mucosa | number of crypts [2, 12]: decreased | number of GFAP positive cells [3, 12]: increased | number of IBA-1 positive cells [3, 12]: increased | time it took to find the platform (escape latency) [4, 11]: significantly prolonged | number of times of crossing the original platform location ([4]; OLDA 0.5 mg/kg to 1.5 mg/kg intraperitoneal once a day for 8 weeks, diseased group vs control group): significantly reduced | area of Aβ in the hippocampus [5, 12]: significantly increased | area of p-Tau181 in the hippocampus [5, 12]: significantly increased

COc1cccc(NC(=O)/C=C/c2ccc(Cl)cc2)c1 [formula I]
spontaneous alternation rate [6]: significantly increased | total number of arm entries [6]: significantly increased | spontaneous alternation rate [1, 13]: significantly increased | total number of arm entries [1, 13]: significantly increased | number of GFAP positive cells [7]: decreased | number of IBA-1 positive cells [7]: decreased | area of Aβ in the hippocampus [8]: decreased | area of p-Tau181 in the hippocampus [8]: decreased | inflammatory cells in the colon tissue [2, 14]: infiltrated into muscularis mucosae | number of crypts [2, 14]: increased | number of GFAP positive cells [3, 14]: decreased | number of IBA-1 positive cells [3, 14]: decreased | number of times of crossing the original platform location [4, 14]: significantly increased | time it took to find the platform (escape latency) [4, 13]: significantly reduced | inflammatory cells in the colon tissue [9]: infiltrated into muscularis mucosae | number of crypts [9]: increased | time it took to find the platform (escape latency) [10]: significantly reduced | number of times of crossing the original platform location ([10]; platform removed): significantly reduced | area of Aβ in the hippocampus [5, 14]: significantly decreased | area of p-Tau181 in the hippocampus [5, 14]: significantly decreased
